Experimental data from ChEMBL document CHEMBL5465560, “Selectivity Literature for EUbOPEN Chemogenomic Library” (2024).
Values belong to the compound of their own block, whether it stands above or below them.

Tests used:
[1] = target: T1, Phosphatidylinositol 3-kinase C2 domain-containing subunit gamma (Homo sapiens) (UniProt O75747); experiment: Selectivity interaction (Kinase panel (Eurofins)) EUB0001564a PIK3C2G; conditions: at 1 µM
T1 sequence (whole entry): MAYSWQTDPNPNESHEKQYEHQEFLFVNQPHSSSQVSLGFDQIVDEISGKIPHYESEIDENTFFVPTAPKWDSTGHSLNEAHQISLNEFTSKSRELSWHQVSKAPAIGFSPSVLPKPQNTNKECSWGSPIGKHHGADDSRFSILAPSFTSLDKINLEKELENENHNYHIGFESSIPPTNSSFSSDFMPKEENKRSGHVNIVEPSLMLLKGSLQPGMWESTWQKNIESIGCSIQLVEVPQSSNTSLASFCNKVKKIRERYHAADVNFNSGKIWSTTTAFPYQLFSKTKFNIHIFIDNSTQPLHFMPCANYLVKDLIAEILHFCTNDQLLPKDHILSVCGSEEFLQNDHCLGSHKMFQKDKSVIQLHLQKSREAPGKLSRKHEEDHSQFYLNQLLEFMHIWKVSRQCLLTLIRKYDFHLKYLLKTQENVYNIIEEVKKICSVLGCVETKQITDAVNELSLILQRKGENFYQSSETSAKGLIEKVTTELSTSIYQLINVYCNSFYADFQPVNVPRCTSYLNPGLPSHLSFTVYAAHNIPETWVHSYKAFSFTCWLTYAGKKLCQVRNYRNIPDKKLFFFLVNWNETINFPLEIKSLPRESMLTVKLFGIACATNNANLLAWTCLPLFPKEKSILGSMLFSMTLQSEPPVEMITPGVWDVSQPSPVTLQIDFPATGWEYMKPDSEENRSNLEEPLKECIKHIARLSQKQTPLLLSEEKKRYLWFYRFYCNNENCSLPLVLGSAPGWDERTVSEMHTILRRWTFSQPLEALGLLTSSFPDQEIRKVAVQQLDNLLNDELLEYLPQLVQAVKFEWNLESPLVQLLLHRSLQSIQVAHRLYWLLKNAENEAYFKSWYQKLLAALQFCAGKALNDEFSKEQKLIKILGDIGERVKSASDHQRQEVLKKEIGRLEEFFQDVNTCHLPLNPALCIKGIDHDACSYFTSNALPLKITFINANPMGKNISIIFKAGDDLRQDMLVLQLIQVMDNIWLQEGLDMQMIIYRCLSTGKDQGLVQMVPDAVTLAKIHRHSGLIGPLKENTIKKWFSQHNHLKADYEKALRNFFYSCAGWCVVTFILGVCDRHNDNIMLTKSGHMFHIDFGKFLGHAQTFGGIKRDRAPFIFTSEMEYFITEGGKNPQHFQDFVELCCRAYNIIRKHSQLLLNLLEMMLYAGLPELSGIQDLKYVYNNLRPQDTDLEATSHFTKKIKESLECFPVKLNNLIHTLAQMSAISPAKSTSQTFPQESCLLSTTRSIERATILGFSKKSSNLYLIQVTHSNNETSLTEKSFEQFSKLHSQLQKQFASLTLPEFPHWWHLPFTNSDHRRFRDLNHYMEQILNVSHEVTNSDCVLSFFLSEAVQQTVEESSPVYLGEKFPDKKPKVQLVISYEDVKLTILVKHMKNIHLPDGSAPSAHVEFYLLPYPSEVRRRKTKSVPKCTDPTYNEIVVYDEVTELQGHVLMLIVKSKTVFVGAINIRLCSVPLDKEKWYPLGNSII

[2] = target: Microtubule-associated serine/threonine-protein kinase 1 (Homo sapiens) (UniProt Q9Y2H9); experiment: Selectivity interaction (Ambit KINOMEscan and KiNATiv profiling in Jurkat cells) EUB0000090b MAST1; assay type: cell-based; conditions: at 1 µM
[3] = target: Cyclin-dependent kinase 13 (Homo sapiens, UniProt Q14004); experiment: Selectivity interaction (KinomeScan (DiscoverX)) EUB0000655a CDK13; conditions: at 10 µM
Cyclin-dependent kinase 13, sequence (Q14004 whole entry, looked up, canonical isoform): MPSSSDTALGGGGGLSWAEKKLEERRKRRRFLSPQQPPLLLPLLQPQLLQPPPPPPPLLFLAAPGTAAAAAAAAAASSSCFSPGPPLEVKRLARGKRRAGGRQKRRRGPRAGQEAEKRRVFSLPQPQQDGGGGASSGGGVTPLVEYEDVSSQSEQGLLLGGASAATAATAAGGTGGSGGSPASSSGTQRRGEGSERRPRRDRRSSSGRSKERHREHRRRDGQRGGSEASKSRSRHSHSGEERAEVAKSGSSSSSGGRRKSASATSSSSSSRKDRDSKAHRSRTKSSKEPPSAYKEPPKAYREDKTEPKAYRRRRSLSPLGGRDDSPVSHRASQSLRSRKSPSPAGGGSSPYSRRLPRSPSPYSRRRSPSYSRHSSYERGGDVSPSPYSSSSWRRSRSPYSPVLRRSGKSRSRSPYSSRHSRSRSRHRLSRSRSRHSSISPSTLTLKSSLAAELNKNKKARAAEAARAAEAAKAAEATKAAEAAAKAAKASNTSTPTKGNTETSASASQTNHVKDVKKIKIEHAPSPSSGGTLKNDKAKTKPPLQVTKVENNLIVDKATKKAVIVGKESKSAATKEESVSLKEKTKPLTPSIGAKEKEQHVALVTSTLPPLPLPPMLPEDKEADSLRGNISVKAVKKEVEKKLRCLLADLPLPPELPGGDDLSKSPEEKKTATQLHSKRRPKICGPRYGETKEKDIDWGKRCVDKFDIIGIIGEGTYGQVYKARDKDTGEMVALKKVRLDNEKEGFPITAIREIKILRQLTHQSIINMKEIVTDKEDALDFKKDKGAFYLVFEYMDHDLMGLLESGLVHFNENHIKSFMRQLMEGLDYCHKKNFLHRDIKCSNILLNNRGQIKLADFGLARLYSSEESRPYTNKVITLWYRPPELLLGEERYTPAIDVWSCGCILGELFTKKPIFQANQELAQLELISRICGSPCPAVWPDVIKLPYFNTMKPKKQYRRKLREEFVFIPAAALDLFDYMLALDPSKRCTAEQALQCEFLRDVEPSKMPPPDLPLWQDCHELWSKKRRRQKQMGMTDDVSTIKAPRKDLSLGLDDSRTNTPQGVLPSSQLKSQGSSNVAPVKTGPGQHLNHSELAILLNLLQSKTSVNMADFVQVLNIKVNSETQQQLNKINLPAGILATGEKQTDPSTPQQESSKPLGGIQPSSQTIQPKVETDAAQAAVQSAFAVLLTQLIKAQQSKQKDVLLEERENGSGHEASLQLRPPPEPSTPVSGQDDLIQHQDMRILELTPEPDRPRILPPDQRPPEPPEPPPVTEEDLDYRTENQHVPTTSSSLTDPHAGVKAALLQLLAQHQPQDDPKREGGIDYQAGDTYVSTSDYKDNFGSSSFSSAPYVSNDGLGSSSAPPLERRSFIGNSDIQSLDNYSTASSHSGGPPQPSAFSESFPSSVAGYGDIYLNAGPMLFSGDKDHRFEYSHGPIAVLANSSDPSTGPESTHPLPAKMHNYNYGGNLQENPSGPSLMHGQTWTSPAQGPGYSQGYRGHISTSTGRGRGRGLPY

[4] = target: Casein kinase I isoform gamma-3 (Homo sapiens) (UniProt Q9Y6M4); experiment: Selectivity interaction (KinomeScan (DiscoverX)) EUB0000655a CSNK1G3; conditions: at 10 µM
Casein kinase I isoform gamma-3 (Homo sapiens), sequence (Q9Y6M4 whole entry, looked up, canonical isoform): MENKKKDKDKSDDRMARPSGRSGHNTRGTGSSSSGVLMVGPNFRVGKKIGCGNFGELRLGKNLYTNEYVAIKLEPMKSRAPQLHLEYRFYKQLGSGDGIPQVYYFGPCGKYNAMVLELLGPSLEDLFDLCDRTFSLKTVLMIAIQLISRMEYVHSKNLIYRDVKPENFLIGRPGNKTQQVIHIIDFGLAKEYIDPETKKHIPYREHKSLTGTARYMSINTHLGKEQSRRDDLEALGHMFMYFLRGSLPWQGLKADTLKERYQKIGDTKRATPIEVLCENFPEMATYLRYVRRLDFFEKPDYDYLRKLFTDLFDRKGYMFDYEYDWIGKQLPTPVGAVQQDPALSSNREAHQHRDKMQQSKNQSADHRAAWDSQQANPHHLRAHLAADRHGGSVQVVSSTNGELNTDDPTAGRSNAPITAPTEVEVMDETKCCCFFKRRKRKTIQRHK

[5] = target: Casein kinase I isoform gamma-2 (Homo sapiens) (UniProt P78368); experiment: Selectivity interaction (KinomeScan (DiscoverX)) EUB0000618a CSNK1G2; conditions: at 10 µM
Casein kinase I isoform gamma-2 (Homo sapiens), sequence (P78368 whole entry, looked up, canonical isoform): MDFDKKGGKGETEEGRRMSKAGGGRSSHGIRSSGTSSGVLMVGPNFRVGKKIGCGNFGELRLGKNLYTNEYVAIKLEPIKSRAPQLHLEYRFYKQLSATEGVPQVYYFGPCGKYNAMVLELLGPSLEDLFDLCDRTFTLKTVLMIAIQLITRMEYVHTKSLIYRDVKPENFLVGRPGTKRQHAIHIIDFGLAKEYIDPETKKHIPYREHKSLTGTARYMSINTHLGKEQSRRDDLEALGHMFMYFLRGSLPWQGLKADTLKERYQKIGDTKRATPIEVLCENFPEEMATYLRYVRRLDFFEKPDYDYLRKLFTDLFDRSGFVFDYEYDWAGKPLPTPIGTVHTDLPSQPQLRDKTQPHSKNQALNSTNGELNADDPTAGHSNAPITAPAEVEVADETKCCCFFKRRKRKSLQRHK

[6] = target: Histone-lysine N-methyltransferase, H3 lysine-79 specific (Homo sapiens, UniProt Q8TEK3); conditions: at 1 µM
Histone-lysine N-methyltransferase, H3 lysine-79 specific, sequence (Q8TEK3 whole entry, looked up): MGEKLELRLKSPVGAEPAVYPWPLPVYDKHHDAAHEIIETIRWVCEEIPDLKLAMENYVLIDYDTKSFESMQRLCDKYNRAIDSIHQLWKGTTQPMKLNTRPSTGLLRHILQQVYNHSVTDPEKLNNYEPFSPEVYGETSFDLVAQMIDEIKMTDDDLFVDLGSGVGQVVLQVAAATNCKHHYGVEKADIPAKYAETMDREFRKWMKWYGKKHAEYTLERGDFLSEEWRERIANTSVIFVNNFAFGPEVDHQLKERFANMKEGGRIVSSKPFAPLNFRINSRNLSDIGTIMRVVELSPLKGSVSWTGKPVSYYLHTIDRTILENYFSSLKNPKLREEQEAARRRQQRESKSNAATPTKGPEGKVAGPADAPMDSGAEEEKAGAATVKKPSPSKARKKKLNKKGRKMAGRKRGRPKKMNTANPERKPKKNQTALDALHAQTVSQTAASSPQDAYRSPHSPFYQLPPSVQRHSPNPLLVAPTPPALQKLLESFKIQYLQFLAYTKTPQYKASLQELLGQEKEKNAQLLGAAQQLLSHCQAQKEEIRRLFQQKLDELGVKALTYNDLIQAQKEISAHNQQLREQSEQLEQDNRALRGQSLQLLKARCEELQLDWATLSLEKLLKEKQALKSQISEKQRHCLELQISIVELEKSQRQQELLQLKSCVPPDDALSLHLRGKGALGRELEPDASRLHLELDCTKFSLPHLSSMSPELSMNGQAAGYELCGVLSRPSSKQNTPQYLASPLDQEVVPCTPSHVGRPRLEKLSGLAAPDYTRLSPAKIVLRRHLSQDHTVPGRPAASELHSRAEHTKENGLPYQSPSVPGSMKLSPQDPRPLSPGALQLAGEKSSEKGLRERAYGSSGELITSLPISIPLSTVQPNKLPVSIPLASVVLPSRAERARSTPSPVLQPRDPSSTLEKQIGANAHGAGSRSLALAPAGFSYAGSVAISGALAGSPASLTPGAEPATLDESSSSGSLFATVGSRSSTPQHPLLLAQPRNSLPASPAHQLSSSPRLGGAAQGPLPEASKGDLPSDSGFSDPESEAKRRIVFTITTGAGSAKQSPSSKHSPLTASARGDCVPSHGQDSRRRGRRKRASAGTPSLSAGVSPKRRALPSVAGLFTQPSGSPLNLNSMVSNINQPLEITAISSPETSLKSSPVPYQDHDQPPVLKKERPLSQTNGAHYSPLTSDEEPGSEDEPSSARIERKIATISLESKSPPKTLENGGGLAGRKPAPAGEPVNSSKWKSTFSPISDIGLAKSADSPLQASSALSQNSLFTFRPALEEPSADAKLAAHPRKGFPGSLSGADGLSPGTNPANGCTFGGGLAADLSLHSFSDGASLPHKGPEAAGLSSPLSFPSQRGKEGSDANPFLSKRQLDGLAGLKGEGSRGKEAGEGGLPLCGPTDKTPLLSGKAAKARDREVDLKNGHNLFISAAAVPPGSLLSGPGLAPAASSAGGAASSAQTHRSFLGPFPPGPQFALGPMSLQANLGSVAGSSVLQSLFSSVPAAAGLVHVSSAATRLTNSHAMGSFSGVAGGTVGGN

[7] = target: Serine/threonine-protein kinase PRP4 homolog (Homo sapiens) (UniProt Q13523); experiment: Selectivity interaction (Kinase panel (KiNativ target engagement assay in Jurkat cells)) EUB0001635a PRPF4; assay type: cell-based; conditions: Selectivity number of off-targets 0.0, Selectivity number of targets 233.0, Source Knowledge https://www.sciencedirect.com/science/article/pii/S2451945619300674?via%3Dihub, at 1 µM
Serine/threonine-protein kinase PRP4 homolog (Homo sapiens), sequence (Q13523 whole entry): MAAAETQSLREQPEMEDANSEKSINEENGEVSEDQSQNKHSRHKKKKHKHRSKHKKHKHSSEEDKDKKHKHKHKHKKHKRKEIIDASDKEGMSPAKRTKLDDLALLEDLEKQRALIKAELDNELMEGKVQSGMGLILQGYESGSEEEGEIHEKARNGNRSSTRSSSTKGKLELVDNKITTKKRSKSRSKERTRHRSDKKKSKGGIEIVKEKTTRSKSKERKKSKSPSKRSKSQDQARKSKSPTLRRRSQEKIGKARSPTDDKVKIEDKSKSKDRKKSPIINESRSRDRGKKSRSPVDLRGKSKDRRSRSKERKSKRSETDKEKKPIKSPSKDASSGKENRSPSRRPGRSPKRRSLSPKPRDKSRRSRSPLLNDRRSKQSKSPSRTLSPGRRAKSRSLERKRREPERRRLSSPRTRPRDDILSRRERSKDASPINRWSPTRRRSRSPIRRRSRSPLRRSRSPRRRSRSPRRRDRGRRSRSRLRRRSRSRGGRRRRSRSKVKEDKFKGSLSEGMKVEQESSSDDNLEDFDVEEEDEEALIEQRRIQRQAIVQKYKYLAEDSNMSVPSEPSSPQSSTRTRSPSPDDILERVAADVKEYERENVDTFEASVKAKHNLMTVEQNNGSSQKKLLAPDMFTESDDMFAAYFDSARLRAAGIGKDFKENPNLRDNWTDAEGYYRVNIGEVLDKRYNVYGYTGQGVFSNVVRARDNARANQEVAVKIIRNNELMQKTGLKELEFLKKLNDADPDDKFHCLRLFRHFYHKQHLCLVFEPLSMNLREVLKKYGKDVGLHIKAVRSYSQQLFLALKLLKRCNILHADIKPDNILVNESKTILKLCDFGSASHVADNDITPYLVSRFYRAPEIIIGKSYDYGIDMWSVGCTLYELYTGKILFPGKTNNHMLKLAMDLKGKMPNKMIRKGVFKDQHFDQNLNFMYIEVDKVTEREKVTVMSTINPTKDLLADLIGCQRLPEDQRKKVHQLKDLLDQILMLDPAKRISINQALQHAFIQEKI

[8] = target: T2, Serine/threonine-protein kinase Sgk3 (Homo sapiens) (UniProt Q96BR1); conditions: at 10 µM
T2 sequence (whole entry): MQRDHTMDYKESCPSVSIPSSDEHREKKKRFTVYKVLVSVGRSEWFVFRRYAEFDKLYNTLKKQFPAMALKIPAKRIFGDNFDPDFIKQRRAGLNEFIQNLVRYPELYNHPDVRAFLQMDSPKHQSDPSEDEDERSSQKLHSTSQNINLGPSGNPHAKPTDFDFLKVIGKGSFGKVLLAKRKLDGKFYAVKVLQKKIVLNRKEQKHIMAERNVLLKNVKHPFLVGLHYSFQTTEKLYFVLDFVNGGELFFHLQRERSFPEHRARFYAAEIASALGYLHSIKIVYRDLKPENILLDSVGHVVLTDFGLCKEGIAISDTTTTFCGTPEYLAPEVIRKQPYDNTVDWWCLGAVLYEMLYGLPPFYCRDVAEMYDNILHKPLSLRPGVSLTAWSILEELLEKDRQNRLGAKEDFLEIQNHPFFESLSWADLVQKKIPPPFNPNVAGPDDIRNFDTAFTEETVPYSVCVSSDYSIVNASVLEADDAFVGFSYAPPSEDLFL

[9] = target: Serine/threonine-protein kinase PRP4 homolog (Homo sapiens) (UniProt Q13523); experiment: Selectivity interaction (KinomeScan (DiscoverX)) EUB0000666a PRPF4B; conditions: at 10 µM

% of inhibition [1]: 25.4%
SMILES: CC[C@@H](Nc1c(C#N)c(-c2ccc(-c3cccc(C)c3F)cc2)nc2cnccc12)C(=O)O [BAY-091]

SMILES: CN(C)C/C=C/C(=O)Nc1ccc(C(=O)N2CCCC(Nc3ncc(Cl)c(-c4c[nH]c5ccccc45)n3)C2)cc1 (centres undefined)
% of control [2]: 95%

SMILES: CN(C)CCOc1ccc(-c2nc(-c3ccncc3)c(-c3ccc4c(c3)CC/C4=N\O)[nH]2)cc1
% of control [3]: 100%
% of control [4]: 92%

SMILES: O[C@H]1CC[C@H](Nc2ncc3nc(Nc4c(F)cc(F)cc4F)n([C@H]4CCOC4)c3n2)CC1
% of control [5]: 100%

% activity [6]: > 90%
SMILES: CNCCN1CCC(c2cc(CN(C)C(=O)c3cccc(Oc4ccccc4)c3)ccn2)CC1

SMILES: C=CC(=O)Nc1ccc(C(=O)Nc2[nH]nc3c2CN(C(=O)N[C@H](CN(C)C)c2ccccc2)C3(C)C)cc1
% of engagement [7]: -2.9%

SMILES: Cc1cc([C@@H](C)Nc2ccccc2C(=O)O)c2nc(N3CCOCC3)cc(=O)n2c1 [AZD-6482]
% of control [8]: 86%

SMILES: O=C(NOC[C@H](O)CO)c1ccc(F)c(F)c1Nc1ccc(I)cc1F
% of control [9]: 77%
